In PubChem BioAssay (NCI) one finds TGI and GI50 data, which are given here for ten molecules.

What all share (test): NCI-60 cell line screen, 48 h
The subject of assay [1] is SK-MEL-5 melanoma.
The test system of assay [2] is COLO 205 colon.
In assay [3] the test system is A549 NSCLC.
For assay [4], the system named is SF-268 CNS.
Assay [5] has as its system RPMI-8226 leukemia.
For assay [6], the system named is IGROV1 ovarian.
Assay [7] deals with MALME-3M melanoma.
In assay [8] the test system is HOP-92 NSCLC.
Assay [9] has as its system HCT-15 colon.
The test system of assay [10] is CAKI-1 renal.

“And” between values parts separate entries of the source, which are not always exact repeats. Equal entries are not always repeated.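 96-well plates; 48 h exposure; 5 concentrations. Endpoints by linear interpolation between flanking doses. Not reached: highest tested concentration assigned. Abbreviation: GI50, concentration required for 50% inhibition of growth. TGI denotes the concentration required for complete inhibition of growth.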

In the case of `COC(=O)[C@H]1[C@H]2C[C@@H]3c4[nH]c5cc(OC)ccc5c4CCN3C[C@H]2C[C@@H](OC(=O)c2cc(OC)c(OC)c(OC)c2)[C@@H]1OC`, the TGI was 54.3 µM in assay [1]; 33.6 µM in [2]; 55.5 µM in assay [3]; over 100 µM in assay [4]; 39.5 µM in assay [5]; 47.1 µM in assay [6]. Also, the TGI in assay [7] worked out at 34.2 µM; in assay [8], 39.9 µM; in assay [9], 87.8 µM; in assay [10], 36 µM.
`CCNC(C)(C)C(SS)c1ccc(Br)cc1` (configuration not stated): the TGI in [1] is over 100 µM; in assay [2] it was over 100 µM; in assay [3], over 100 µM; in [4], over 100 µM; in assay [5], 76.1 µM; in [6] it was over 100 µM. Besides, the TGI in [7], in [8], in assay [9] and in assay [10] was over 100 µM in each case.
For the molecule `N=Nc1c(OC(=O)Nc2ccccc2)[nH]c2ccccc12`, the TGI in assay [1] was 51.9 µM; in [2], 42.9 µM; in assay [3], 44.4 µM; in [4] it was over 100 µM; in [5], 32.1 µM; in [6] it was 42.2 µM. For the same molecule, the TGI in [7] was 29.2 µM; in [8] it was 55.6 µM; in assay [9] it was over 100 µM; in assay [10] it was 32.8 µM.
For `CN1CCN(CCCOc2cccc3nc(Nc4ccc(Cl)c(F)c4)ccc23)CC1`, the GI50 in assay [1] was 1.78 µM; in [2] it was 1.7 µM; in assay [3] it was 1.96 µM; in assay [4] it was 1.72 µM; in [5], 2.55 µM; in assay [6] it was 1.95 µM. Moreover, the GI50 in [7] was 1.92 µM; in assay [8], 1.33 µM; in assay [9] it was 1.4 µM; in assay [10], 2.53 µM. Besides, the TGI in [1] is 3.17 µM; in [2], 3.34 µM; in assay [3], 3.65 µM; in [4], 3.46 µM; in assay [5] it was 5.88 µM; in assay [6], 4.31 µM. Also, the TGI is 4.05 µM in [7], 5.27 µM in assay [8], 2.79 µM in assay [9] and 8.47 µM in assay [10].
Turning to `COC(=O)CCC(C)[C@H]1CCC2C3C(C[C@H](OC(C)=O)[C@@]21C)[C@@]1(C)CCC2(C[C@H]1C[C@H]3OC(C)=O)OOC1(CCC(C)CC1)OO2` (some centres not stated), the TGI in [1] was over 100 µM; in assay [2], over 100 µM; in assay [3] it was 25.4 µM and > 100 µM; in [4], over 100 µM; in assay [5], 6.34 µM and 17.2 µM; in [6], 16.4 µM and 27.3 µM. Further, the TGI in assay [7] was over 100 µM; in assay [8], 7.63 µM and 69.9 µM; in assay [9], over 100 µM; in assay [10] it was over 100 µM. In addition, the GI50 was 8.13 µM and 48.8 µM in assay [2]; 3.89 µM and 13.4 µM in [3]; 8.26 µM and 32.8 µM in assay [4]; 1.28 µM and 3.15 µM in assay [5]; 3.82 µM and 10.1 µM in assay [6]; 8.89 µM and 30.9 µM in assay [9]. Moreover, in [10], the GI50 was 5.26 µM and 15.8 µM.
`Cc1ccc(NC(=O)CC/C(CC(=O)C(C)(C)C)=N/NC(=O)C(N)=O)cc1C`: the TGI in assay [1], in assay [2], in assay [3], in [4], in assay [5] and in assay [6] was over 100 µM each time. Moreover, the TGI in assay [7], in assay [8], in assay [9] and in assay [10] was over 100 µM each time.
For the molecule `N=CCCN(CCC=N)c1ccc(/C=C2\CN(NC(=O)c3ccc(Cl)cc3)C(c3ccccc3)=N2)cc1`, the TGI is over 100 µM in [1]; over 100 µM in [2]; over 100 µM in assay [3]; over 100 µM in [4]; 53.6 µM in assay [5]; over 100 µM in [6]. Besides, the TGI in [7], in [8], in assay [9] and in assay [10] was over 100 µM throughout.
`O=C(/C=C/C12c3ccccc3C(c3ccccc31)C1C(=O)N(c3ccccc3)C(=O)C12)c1ccc(Cl)cc1` (configuration not stated): the GI50 in assay [1] was 1.95 µM; in assay [2] it was 1.79 µM; in [3] it was 2.37 µM; in [4] it was 4.56 µM; in assay [5], 1.16 µM; in assay [6], 2.1 µM. The GI50 in [7] is 1.6 µM; in assay [8], 1.33 µM; in [9], 1.19 µM; in assay [10] it was 1.02 µM. Besides, the TGI was 4.07 µM in assay [1]; 3.58 µM in [2]; over 100 µM in assay [3]; over 100 µM in assay [4]; 4.68 µM in assay [5]; 6.09 µM in assay [6]. Besides, the TGI in assay [7] turned out to be 3.37 µM; in assay [8] it was 3.26 µM; in assay [9], 6.46 µM; in assay [10] it was 3.52 µM.
Turning to `CC1(C)C(c2ccccc2)C12CCC1(C2=O)C(c2ccccc2)C1(C)C` (configuration not stated), the TGI in [1] is 37.9 µM; in [2], 33.6 µM; in assay [3], 75.7 µM; in assay [4], 97.7 µM; in [5], 33.3 µM; in assay [6], over 100 µM. Besides, the TGI is 72.5 µM in assay [7], 31.6 µM in [8], 51.8 µM in [9] and 60.3 µM in assay [10].
Regarding `O=C(CC(=O)c1ccc([N+](=O)[O-])cc1)C(=O)Nc1nccs1`, the TGI in assay [1], in [2], in [3], in assay [4], in assay [5] and in assay [6] was over 100 µM throughout. Moreover, the TGI in assay [7], in [8], in [9] and in assay [10] was over 100 µM in each case.
